Key:
Assay in all cases: competition pull-down with PIP3 beads, Western blot
Type in all cases: binding
BTK [1] = molecular target: T1, BTK (Homo sapiens, UniProt Q06187); conditions: human platelet NP40 lysate; competes with bead-bound PIP3 (about 800 nM); pH 7.4, 4 °C, 5 mM EDTA, 5 mM EGTA
T1 construct: native full-length protein in NP40 lysate of washed human platelets, captured on PIP3 beads, Western blot read-out

RASA3 = molecular target: T2, RASA3 (Homo sapiens, UniProt Q14644); conditions: read-out: % inhibition of extraction at 40 μM
T2 construct: native full-length protein in NP40 lysate of washed human platelets, captured on PIP3 beads, Western blot read-out
T2 sequence (Q14644 2-834): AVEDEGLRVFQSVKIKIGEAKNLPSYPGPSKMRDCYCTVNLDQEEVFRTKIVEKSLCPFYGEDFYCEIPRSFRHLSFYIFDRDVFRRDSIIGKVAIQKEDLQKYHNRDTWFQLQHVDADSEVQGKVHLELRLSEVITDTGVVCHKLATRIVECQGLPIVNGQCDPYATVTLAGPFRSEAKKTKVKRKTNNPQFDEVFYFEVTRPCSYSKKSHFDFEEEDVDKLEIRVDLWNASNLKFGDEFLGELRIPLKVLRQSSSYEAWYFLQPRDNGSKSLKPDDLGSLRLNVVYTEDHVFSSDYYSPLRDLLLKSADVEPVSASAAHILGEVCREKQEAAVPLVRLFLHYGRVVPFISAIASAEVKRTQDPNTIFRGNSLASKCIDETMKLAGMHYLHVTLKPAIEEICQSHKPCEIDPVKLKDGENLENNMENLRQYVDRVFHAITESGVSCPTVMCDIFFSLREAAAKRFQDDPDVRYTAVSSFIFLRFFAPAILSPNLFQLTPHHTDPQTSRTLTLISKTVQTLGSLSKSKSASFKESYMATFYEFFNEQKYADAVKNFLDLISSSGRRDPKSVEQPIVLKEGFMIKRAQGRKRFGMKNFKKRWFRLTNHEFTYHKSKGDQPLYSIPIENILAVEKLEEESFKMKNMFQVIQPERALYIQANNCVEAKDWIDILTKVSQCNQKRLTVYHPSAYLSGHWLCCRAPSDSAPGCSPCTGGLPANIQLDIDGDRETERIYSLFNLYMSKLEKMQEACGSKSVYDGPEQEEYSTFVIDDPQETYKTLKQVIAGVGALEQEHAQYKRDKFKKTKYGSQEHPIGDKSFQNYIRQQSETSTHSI

BTK [2] = molecular target: T1, BTK; conditions: human platelet NP40 lysate; competes with bead-bound PIP3 (about 800 nM); pH 7.4, 4 °C, 5 mM EDTA, 5 mM EGTA; remark: listed apart in the source

T1 sequence (Q06187 2-659): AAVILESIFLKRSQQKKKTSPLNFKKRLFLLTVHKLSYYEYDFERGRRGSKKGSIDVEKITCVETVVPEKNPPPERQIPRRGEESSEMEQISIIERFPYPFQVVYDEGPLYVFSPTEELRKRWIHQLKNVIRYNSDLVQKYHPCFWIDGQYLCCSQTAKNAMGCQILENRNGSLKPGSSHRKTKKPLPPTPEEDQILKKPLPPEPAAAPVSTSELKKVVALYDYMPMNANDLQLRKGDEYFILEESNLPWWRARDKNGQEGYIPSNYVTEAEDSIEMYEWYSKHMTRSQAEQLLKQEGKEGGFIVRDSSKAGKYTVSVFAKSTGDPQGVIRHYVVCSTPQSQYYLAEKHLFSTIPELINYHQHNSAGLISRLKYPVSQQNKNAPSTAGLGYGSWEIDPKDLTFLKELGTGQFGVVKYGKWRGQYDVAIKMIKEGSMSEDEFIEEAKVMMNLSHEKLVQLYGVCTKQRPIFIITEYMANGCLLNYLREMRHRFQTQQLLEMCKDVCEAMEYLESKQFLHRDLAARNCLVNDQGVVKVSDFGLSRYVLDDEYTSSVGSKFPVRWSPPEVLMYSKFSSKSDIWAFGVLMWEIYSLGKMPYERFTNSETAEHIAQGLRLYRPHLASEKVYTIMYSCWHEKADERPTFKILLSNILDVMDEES

Row | Structure (SMILES) | inhibition of extraction by PIP3 beads at 40 μM (BTK [1]) | inhibition at 40 µM (RASA3) [%] | inhibition of extraction by PIP3 beads (BTK [2])
1 | CCCCCCCC(=O)OC[C@H](COP(=O)(O)O[C@H]1[C@H](O)[C@@H](OP(=O)(O)O)[C@H](OP(=O)(O)O)[C@@H](OP(=O)(O)O)[C@H]1O)OC(=O)CCCCCCC [DiC8-PIP3] | exogenously added DiC8-PIP3 was marginally less potent at competing with PIP3 beads |  | 
2 | O=P(O)(O)OC1[C@H](O)[C@H](OP(=O)(O)O)C(OP(=O)(O)O)[C@H](OP(=O)(O)O)[C@H]1O (stereo partly drawn) [IP4] |  | > 90 | IP4 also reduced extraction of the PH domain–bearing tyrosine kinase BTK

Source: paper PMC10885593, “Evidence that inositol 1,4,5-trisphosphate 3-kinase and inositol 1,3,4,5-tetrakisphosphate are negative regulators of platelet function” (Research and Practice in Thrombosis and Haemostasis, 2024)
